{
  "source": "patent US20240344040A1",
  "about": "“PROKARYOTIC AND EUKARYOTIC CELLS WITH BIOSYNTHESIZED SULFOTYROSINE FOR GENETIC INCORPORATION” (William Marsh Rice University, priority 2023, published 2024)",
  "origin": "cited, not measured here",
  "conditions": "cells incubated with 1 mM pThr",
  "data": [
    {"molecule": "C[C@@H](OP(=O)(O)O)[C@H](N)C(=O)O", "note": "[phosphothreonine]", "values": [
      {"measurement": "intracellular detection", "value": "cannot be detected intracellularly"}
    ]}
  ]
}
